Measurements from patent US4871719A, “Composition for controlling parasites in productive livestock” (Ciba-Geigy Corporation, priority 1987, dated 1989).

System: L1 larvae of Lucilia sericata
Assay: Action against L1 larvae of Lucilia sericata
Type: in vivo
Conditions: 96 h, read-out: action (mortality count)
Experimental: 1 ml of an aqueous suspension of test compound is mixed with 3 ml of a special larval culture medium at about 50° C. such that a homogeneous composition containing 250 ppm or 125 ppm of active ingredient is obtained. About 30 Lucilia sericata larvae (L1) are put into each test tube sample. A mortality count is made after 4 days. The compounds of formula I, such as, for example, Nos. 3.2, 3.6, 3.7, 3.10, 3.34 and 3.38, achieved 100% action at 125 ppm.

Row | SMILES | mortality at 125 ppm [%]
1 | COCCOC1CC[C@@]2(O1)/C(C)=C/C[C@@H]1C[C@@H](C[C@]3(CC[C@H](C)[C@@H](C(C)C)O3)O1)OC(=O)[C@@H]1C=C(C)[C@@H](O)[C@H]3OC/C(=C\C=C\[C@@H]2C)[C@]31O (single isomer, unassigned) [Compound 3.34] | 100
2 | CCOCCOC1CC[C@@]2(O1)/C(C)=C/C[C@@H]1C[C@@H](C[C@]3(CC[C@H](C)[C@@H](C(C)C)O3)O1)OC(=O)[C@@H]1C=C(C)[C@@H](O)[C@H]3OC/C(=C\C=C\[C@@H]2C)[C@]31O (stereo partly drawn) [Compound 3.38] | 100
3 | CCOC1CC[C@@]2(O1)/C(C)=C/C[C@@H]1C[C@@H](C[C@]3(CC[C@H](C)[C@@H](C(C)C)O3)O1)OC(=O)[C@@H]1C=C(C)[C@@H](O)[C@H]3OC/C(=C\C=C\[C@@H]2C)[C@]31O (stereo partly drawn) [Compound 3.6] | 100
4 | CCCOC1CC[C@@]2(O1)/C(C)=C/C[C@@H]1C[C@@H](C[C@]3(CC[C@H](C)[C@@H](C(C)C)O3)O1)OC(=O)[C@@H]1C=C(C)[C@@H](O)[C@H]3OC/C(=C\C=C\[C@@H]2C)[C@]31O (single isomer, unassigned) [Compound 3.7] | 100
5 | CC1=C[C@H]2C(=O)O[C@H]3C[C@@H](C/C=C(\C)[C@]4(CCC(OC(C)C)O4)[C@@H](C)/C=C/C=C4\CO[C@H]([C@@H]1O)[C@@]42O)O[C@@]1(CC[C@H](C)[C@@H](C(C)C)O1)C3 (single isomer, unassigned) [Compound 3.10] | 100
6 | COC1CC[C@@]2(O1)/C(C)=C/C[C@@H]1C[C@@H](C[C@]3(CC[C@H](C)[C@@H](C(C)C)O3)O1)OC(=O)[C@@H]1C=C(C)[C@@H](O)[C@H]3OC/C(=C\C=C\[C@@H]2C)[C@]31O (single isomer, unassigned) [Compound 3.2] | 100
